Data as given in patent EP0643699B1, “6-(2-HYDROXYETHYLAMINOALKYL)-5,11-DIOXO-5,6-DIHYDRO-11H- INDENO[1,2-C]ISOQUINOLINES AND THEIR USE AS ANTINEOPLASTIC AGENTS” (priority 1991, dated 1993).
pIC50: −log10 of the molar value. Where two headings read alike, the source gives them in different places.

What was measured:
L1210/MX = assay: Cytotoxicity: incorporation of [14C]amino-acid mixture, variant resistant to mitoxantron; assay type: cell-based; details: Mus musculus; Tumor L1210/MX; Precursor [U-14C]Amino-acid mixture
Description: (§1) The antineoplastic activity of the compounds of the invention has been investigated testing the compounds of the chemical group "in vivo" against experimental rodent tumors such as the solid form of Ehrlich tumour (STE, originally mammary adenocarcinoma), tumor HK (also transplantable originally mammary adenocarcinoma), Krebs' ascites tumour (Kr2), S37 ascites sarcoma, Nemeth-Keller lymphoma (NK), all maintained in mice H, Gardner lymphosarcoma (LsG, maintained in mice C3H), P388 and/or L1210 leukemia (maintained in DBA2 mice), B16 metastasizing melanocarcinoma (maintained in C57B1/6 mice) and Yoshida ascites reticulosarcoma (Y, maintained in Wistar rats) in experiments according to Jelinek, V. [Neoplasma 12, 469 (1965); ibid 7, 146 (1960)] and in "in vitro" experiments using radioactive precursors of nucleic acids and proteins according to Miko, M. et al. [Cancer Res 39, 4242 (1979); Neoplasma 26, 449 (1979); ibid 16, 161 (1969)] with minor modifications [Mattern, J.: Studies on the Drug Sensitivity of Short Term Cultured Tumour Cell Suspensions. In "Human Tumours in Short Term Culture" (Dendy, P.P. ed.), p.301, Academic Press 1976]. The Cox's proportional-hazards model was used for survival evaluation and optimal dose calculation according to Carter, V.H. et al. [cf Cancer Res. 42, 2963 (1982)]. […]

L1210 = assay: Optimal dose (ED 95) in L1210 leukemia bearing mice; assay type: in vivo; details: L1210 bearing mice DBA2
Description: as §1

## O=C1c2ccccc2-c2c1c1ccccc1c(=O)n2CCNCCO [I (X=2), 6-[2-(2-hydroxyethyl)aminoethyl]-5,11-dioxo-5,6-dihydro-11H-indeno[1,2-c]isoquinoline]
L1210/MX
  pIC50: 3.92
L1210; Mus musculus, po, read-out: ED 95
  ED95: 225 mg/kg
L1210; p.o., dose per body surface
  ED95: 675 mg/m^2
